Assay results: patent publication US20250179051A1, “PYRIMIDINLY-OXY-QUINOLINE BASED HERBICIDAL COMPOUNDS” (SYNGENTA CROP PROTECTION AG, priority 2022, published 2025)

Key:
Type in all cases: in vivo
Conditions in all cases: 250 g/ha, evaluated after 13 days, five-point scale
[1] = tested on: Amaranthus retoflexus (AMARE); assay: Post-emergence herbicide glasshouse test
Procedure, shortened: (§1)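 Glasshouse spray test at 250 g/ha, pre- or post-emergence (1 or 8 days after sowing). Percent injury scored 1–5 after 13 days.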

[2] = tested on: Ipomoea hederacea (IPOHE); assay: Post-emergence herbicide glasshouse test
Procedure, shortened: as §1

[3] = tested on: Amaranthus palmeri (AMAPA); assay: Post-emergence herbicide glasshouse test
Procedure, shortened: as §1

Setaria faberi (SETFA) [4] = assay: Post-emergence herbicide glasshouse test
Procedure, shortened: as §1

[5] = tested on: Echinochloa crus-galli (ECHCG); assay: Post-emergence herbicide glasshouse test
Procedure, shortened: as §1

[6] = tested on: Amaranthus retoflexus (AMARE); assay: Pre-emergence herbicide glasshouse test
Procedure, shortened: as §1

[7] = tested on: Ipomoea hederacea (IPOHE); assay: Pre-emergence herbicide glasshouse test
Procedure, shortened: as §1

[8] = tested on: Amaranthus palmeri (AMAPA); assay: Pre-emergence herbicide glasshouse test
Procedure, shortened: as §1

Setaria faberi (SETFA) [9] = assay: Pre-emergence herbicide glasshouse test
Procedure, shortened: as §1

[10] = tested on: Echinochloa crus-galli (ECHCG); assay: Pre-emergence herbicide glasshouse test
Procedure, shortened: as §1

SMILES	percentage damage caused to the plant, AMARE [1]	percentage damage caused to the plant, IPOHE [2]	percentage damage caused to the plant, AMAPA [3]	percentage damage caused to the plant, SETFA (Setaria faberi (SETFA) [4])	percentage damage caused to the plant, ECHCG [5]	percentage damage caused to the plant, AMARE [6]	percentage damage caused to the plant, IPOHE [7]	percentage damage caused to the plant, AMAPA [8]	percentage damage caused to the plant, SETFA (Setaria faberi (SETFA) [9])	percentage damage caused to the plant, ECHCG [10]
CN(C)/C=C/c1nc(C(F)(F)F)nc2cccc(Oc3ncc(Cl)cn3)c12 [Compound 1.010, 2-[5-(5-chloropyrimidin-2-yl)oxy-2-(trifluoromethyl)quinazolin-4-yl]-N,N-dimethyl-ethenamine]	3 (3=41-60%)	1 (1=0-20%)	3 (3=41-60%)	1 (1=0-20%)	1 (1=0-20%)	2 (2=21-40%)	1 (1=0-20%)	2 (2=21-40%)	1 (1=0-20%)	1 (1=0-20%)
O=C(c1ccncc1)c1nc(C(F)(F)F)nc2cccc(Oc3ncc(Cl)cn3)c12 [Compound 1.036]	3 (3=41-60%)	1 (1=0-20%)	3 (3=41-60%)	1 (1=0-20%)	1 (1=0-20%)	3 (3=41-60%)	1 (1=0-20%)	4 (4=61-80%)	3 (3=41-60%)	3 (3=41-60%)
FC(F)(F)c1nc(CCC2COC2)c2c(Oc3ncc(Cl)cn3)cccc2n1 [Compound 1.033]	4 (4=61-80%)	5 (5=81-100%)	2 (2=21-40%)	5 (5=81-100%)	5 (5=81-100%)	4 (4=61-80%)	5 (5=81-100%)	5 (5=81-100%)	5 (5=81-100%)	5 (5=81-100%)
O=C(c1cccnc1)c1nc(C(F)(F)F)nc2cccc(Oc3ncc(Cl)cn3)c12 [Compound 1.030]	5 (5=81-100%)	2 (2=21-40%)	5 (5=81-100%)	2 (2=21-40%)	2 (2=21-40%)	5 (5=81-100%)	1 (1=0-20%)	5 (5=81-100%)	4 (4=61-80%)	4 (4=61-80%)
FC(F)(F)c1nc(CCC2CC2)c2c(Oc3ncc(Cl)cn3)ccc(Br)c2n1 [Compound 1.060]	3 (3=41-60%)	3 (3=41-60%)	3 (3=41-60%)	2 (2=21-40%)	1 (1=0-20%)	1 (1=0-20%)	1 (1=0-20%)	2 (2=21-40%)	2 (2=21-40%)	1 (1=0-20%)
FC(F)(F)c1nc(CC=NOCC2CC2)c2c(Oc3ncc(Cl)cn3)cccc2n1 [Compound 1.008, 2-[5-(5-chloropyrimidin-2-yl)oxy-2-(trifluoromethyl)quinazolin-4-yl]-N-(cyclopropylmethoxy) ethanimine]	4 (4=61-80%)	1 (1=0-20%)	4 (4=61-80%)	1 (1=0-20%)	2 (2=21-40%)	1 (1=0-20%)	1 (1=0-20%)	2 (2=21-40%)	1 (1=0-20%)	1 (1=0-20%)
FC(F)(F)c1ncc(-c2nc(C(F)(F)F)nc3cccc(Oc4ncc(Cl)cn4)c23)cn1 [Compound 1.013, 5-(5-chloropyrimidin-2-yl)oxy-2-(trifluoromethyl)-4-[2-(trifluoromethyl)pyrimidin-5-yl]quinazoline]	2 (2=21-40%)	1 (1=0-20%)	2 (2=21-40%)	1 (1=0-20%)	1 (1=0-20%)	1 (1=0-20%)	1 (1=0-20%)	1 (1=0-20%)	1 (1=0-20%)	1 (1=0-20%)
FC(F)(F)c1nc(C2CC2)c2c(Oc3ncc(Cl)cn3)cccc2n1 [Compound 1.041, 5-(5-chloropyrimidin-2-yl)oxy-4-cyclopropyl-2-(trifluoromethyl)quinazoline]	5 (5=81-100%)	2 (2=21-40%)	5 (5=81-100%)	5 (5=81-100%)	3 (3=41-60%)	2 (2=21-40%)	1 (1=0-20%)	5 (5=81-100%)	5 (5=81-100%)	3 (3=41-60%)
CC(=NOCC1CC1)c1nc(C(F)(F)F)nc2cccc(Oc3ncc(Cl)cn3)c12 [Compound 1.065]	2 (2=21-40%)	1 (1=0-20%)	2 (2=21-40%)	1 (1=0-20%)	1 (1=0-20%)	1 (1=0-20%)	1 (1=0-20%)	1 (1=0-20%)	1 (1=0-20%)	1 (1=0-20%)
OCCCc1nc(C(F)(F)F)nc2cccc(Oc3ncc(Cl)cn3)c12 [Compound 1.039, 3-[5-(5-chloropyrimidin-2-yl)oxy-2-(trifluoromethyl)quinazolin-4-yl]propan-1-ol]	4 (4=61-80%)	3 (3=41-60%)	3 (3=41-60%)	1 (1=0-20%)	1 (1=0-20%)	3 (3=41-60%)	1 (1=0-20%)	2 (2=21-40%)	2 (2=21-40%)	2 (2=21-40%)
FC(F)(F)CCC(Br)c1nc(C(F)(F)F)nc2cccc(Oc3ncc(Cl)cn3)c12 (centres unmarked) [Compound 1.071]	5 (5=81-100%)	3 (3=41-60%)	5 (5=81-100%)	4 (4=61-80%)	5 (5=81-100%)	5 (5=81-100%)	1 (1=0-20%)	5 (5=81-100%)	5 (5=81-100%)	5 (5=81-100%)
